# Measured values from patent US20250082794A1, “ANTIMONY CHELATES FOR TARGETED AUGER THERAPY AND IMAGING DIAGNOSTICS” (Wisconsin Alumni Research Foundation, priority 2023, published 2025).
# Experiment: SPECT and PET imaging biodistribution in mice
# Type: in vivo, BALB/c mice
# Procedure: For in vivo imaging and stability studies, ^117Sb was produced in 0.5 M NH4OAc at the University of Wisconsin-Madison and experiments were conducted the same day. 2 mL of ^117Sb in 0.5 M NH4OAc pH 4 solution was combined with 220 μL of 10 mM TRENCAM in 20% DMSO solution and heated to 80° C. for 1 h. Quantitative radiolabeling was confirmed via TLC. A 1:5 dilution of the radiolabeling solution with DI H2O was performed before passing it through a C8 Sep-Pak® cartridge (Waters, Milford, MA, USA), preconditioned with 5 mL EtOH and 5 mL H2O) to trap the [^117Sb]Sb-TRENCAM complex. The cartridge was rinsed with 1 mL H2O to remove NH4OAc buffer and unchelated ^117/119Sb, and then the [^117Sb]Sb-TRENCAM complex was eluted with EtOH and collected dropwise. […]
# Two groups of healthy 3-month-old male BALB/c mice (n=3) ([…]) were injected with 150 μL ^117Sb solutions. […] In both cases, scanner calibration occurred by imaging vials of ^117Sb activity and correlating image signal strength to activity measured via High Purity Germanium (HPGe) gamma spectroscopy. […] Using co-registered CT images, manual volume-of-interest delineation of tissues allowed activity biodistribution measurement, as expressed as percent injected activity per gram of tissue (% IA/g), using either Inveon Research Workstation (Siemens) for PET VOI analysis or Imalytics 3.0 (MILabs) for SPECT VOI analysis. […]
structure (smiles),measurement,setting,value
[OH][Sb-]([OH])([OH])([OH])([OH])[OH] [[^117Sb]Sb(OH)6^−],uptake in bone (PET images),PET 150 min post injection,uptake
same,clearance route and organ uptake by PET and SPECT imaging,"tail vein injection, imaged 20-240 min post injection",renal clearance with liver accumulation
